Results from patent US8017612B2, “Piperazine compound and use thereof as a HCV polymerase inhibitor” (priority 2006, dated 2011).

Tests used:
[1] = target: T1, HCV polymerase (NS5B) type 1a (Hepatitis C virus genotype 1a, UniProt P26664); experiment: Assay of enzyme (HCV polymerase) inhibitory activity, type 1a enzyme; format: biochemical, HCV type 1a (cloned from the blood of patients)
T1 construct: made in house; host or cells: Escherichia coli (by the 'similar method' of the 1b enzyme)
Summary of the method: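 NS5B Δ47 C-term His6 (type 1a, 1.5 μg/ml); substrate RNA 5 μg/ml; ATP/GTP/CTP 50 μM, UTP 2 μM + [5,6-3H]UTP; Tris pH 7.5, MgCl2 5 mM; 25° C, 60 min. TCA/pyrophosphate stop, GF/B filter, scintillation. IC50 vs no-compound control.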

[2] = target: T2, HCV polymerase (NS5B) type 1b (Hepatitis C virus genotype 1b, UniProt P26663); experiment: Assay of enzyme (HCV polymerase) inhibitory activity, type 1b enzyme; format: biochemical, HCV BK strain (type 1b)
T2 construct: a region encoding NS5B (J Virol 1991 March, 65(3), 1105-13, 544 amino acids after deletion of 47 amino acids on the C-terminal); 6xHis (C); made in house; host or cells: Escherichia coli
Summary of the method: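 Rxn: NS5B 1b (BK, ΔC47, His6) 0.5 μg/ml; substrate RNA 5 μg/ml; ATP/GTP/CTP 50 μM, UTP 2 μM + [5,6-3H]UTP; 20 mM Tris pH 7.5, 5 mM MgCl2, 50 mM NaCl, 1 mM EDTA/DTT. 25 °C, 60 min. Stop with TCA/pyrophosphate, filter, scintillation count; IC50 vs. untreated.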

[3] = HCV polymerase inhibitory activity (IC50), 1a, type 1a enzyme 1.5 μg/ml, 25° C., 60 min
[4] = HCV polymerase inhibitory activity (IC50), 1b, type 1b enzyme 0.5 μg/ml, 25° C., 60 min
[5] = HCV polymerase inhibitory activity IC50, 1a, type 1a enzyme
[6] = HCV polymerase inhibitory activity IC50, 1b, type 1b enzyme

Which results are given for `CC(=O)N1CCN(S(=O)(=O)c2ccc(C(C)C)cc2)C(C(=O)NCc2ccc(NC(=O)C(C)(C)C)cc2)C1` (stereo not drawn) [Example 98, 4-acetyl-1-(4-isopropyl-benzenesulfonyl)-piperazine-2-carboxylic acid 4-(2,2-dimethyl-propionylamino)-benzylamide]?
IC50 [1, 3]: > 1 µM; IC50 [2, 4]: > 1 µM

How did the IC50 [1, 5] turn out when `CCC(F)(F)c1ccc(CNC(=O)[C@H]2CN(c3cnc4cncnc4n3)CCN2S(=O)(=O)c2ccc(-c3ccccc3)cc2)cc1` [Example 696, (R)-1-(biphenyl-4-sulfonyl)-4-pteridin-7-yl-piperazine-2-carboxylic acid 4-(1,1-difluoro-propyl)-benzylamide] was run?
The IC50 was under 0.1 µM.

And the IC50 [2, 6]?
The IC50 was under 0.1 µM.

What does the source list for `O=C(NCc1ccc(Cl)cc1)[C@H]1CN(c2cnc3cncnc3n2)CCN1S(=O)(=O)c1ccc(OC(F)(F)F)cc1` [Example 629, (R)-4-pteridin-7-yl-1-(4-trifluoromethoxy-benzenesulfonyl)-piperazine-2-carboxylic acid 4-chloro-benzylamide]?
IC50 [1, 3]: 0.1 to 1 µM; IC50 [2, 4]: < 0.1 µM

Which IC50 [1, 3] does the source give for `COC(=O)c1ccc(NC(=O)N2CCN(S(=O)(=O)c3ccc(C(F)(F)F)cc3)[C@@H](C(=O)NCc3ccc(C(C)C)cc3)C2)cc1` [Example 276, 4-{[(R)-3-(4-isopropyl-benzylcarbamoyl)-4-(4-trifluoromethyl-benzenesulfonyl)-piperazine-1-carbonyl]-amino}-benzoic acid methyl ester] here?
Its IC50 is 0.1 to 1 µM.

What about the IC50 [2, 4] of the same compound?
Its IC50 is 0.1 to 1 µM.

For `O=C(NCc1ccc(OC(F)(F)F)cc1)[C@H]1CN(c2nc3nc(O)nc(O)c3s2)CCN1S(=O)(=O)c1ccc(OC(F)(F)F)cc1` [Example 888, (R)-4-(5,7-dihydroxy-thiazolo[4,5-d]pyrimidin-2-yl)-1-(4-trifluoromethoxy-benzenesulfonyl)-piperazine-2-carboxylic acid 4-trifluoromethoxy-benzylamide], which IC50 [1, 5] is on record?
The IC50 was under 0.1 µM.

And the IC50 [2, 6]?
The IC50 was under 0.1 µM.

`CCC(F)(F)c1ccc(CNC(=O)[C@H]2CN(c3cnc(C(=O)O)cn3)CCN2S(=O)(=O)c2ccc(OC(F)(F)F)cc2)cc1` [Example 559, (R)-3-[4-(1,1-difluoro-propyl)-benzylcarbamoyl]-4-(4-trifluoromethoxy-benzenesulfonyl)-3,4,5,6-tetrahydro-2H-[1,2′]bipyrazinyl-5′-carboxylic acid] was tested. Which IC50 [1, 3] did it give?
Its IC50 is under 0.1 µM.

What about the IC50 [2, 4] of the same compound?
Its IC50 is under 0.1 µM.

With `CC(=O)N1CCN(S(=O)(=O)c2ccc(C(C)C)cc2)C(C(=O)NCc2ccc(-c3ccccc3Cl)cc2)C1` (stereo not drawn) [Example 142, 4-acetyl-1-(4-isopropyl-benzenesulfonyl)-piperazine-2-carboxylic acid (2′-chloro-biphenyl-4-ylmethyl)-amide] as the compound, how does the IC50 [1, 3] read?
The IC50 was over 1 µM.

And the IC50 [2, 4]?
Its IC50 is over 1 µM.

Which results are given for `CCC(F)(F)c1ccc(CNC(=O)[C@H]2CN(c3cnc4c(n3)NS(=O)(=O)NC4)CCN2S(=O)(=O)c2ccc(OC(F)(F)F)cc2)cc1` [Example 650, (R)-4-(2,2-dioxo-1,2,3,4-tetrahydro-2λ^6-pyrazino[2,3-c][1,2,6]thiadiazin-7-yl)-1-(4-trifluoromethoxy-benzenesulfonyl)-piperazine-2-carboxylic acid 4-(1,1-difluoro-propyl)-benzylamide]?
IC50 [1, 3]: 0.1 to 1 µM; IC50 [2, 4]: < 0.1 µM

How did the IC50 [1, 3] turn out when `CCCc1ccc(CNC(=O)[C@H]2CN(c3nc(C)c(CO)s3)CCN2S(=O)(=O)c2ccc(OC(F)(F)F)cc2)cc1` [Example 452, (R)-4-(5-hydroxymethyl-4-methyl-thiazol-2-yl)-1-(4-trifluoromethoxy-benzenesulfonyl)-piperazine-2-carboxylic acid 4-propyl-benzylamide] was run?
The IC50 was under 0.1 µM.

And the IC50 [2, 4]?
Its IC50 is under 0.1 µM.

How did the IC50 [1, 5] turn out when `CCCc1ccc(CNC(=O)[C@H]2CN(C(C)=O)CCN2S(=O)(=O)c2ccc(OC(F)(F)F)cc2)cn1` [Example 718, (R)-4-acetyl-1-(4-trifluoromethoxy-benzenesulfonyl)-piperazine-2-carboxylic acid (6-propyl-pyridin-3-ylmethyl)-amide] was run?
The IC50 was over 1 µM.

And the IC50 [2, 6]?
The IC50 was 0.1 to 1 µM.

What does the source list for `O=C(NCc1ccc(OC(F)(F)F)cc1)[C@H]1CN(c2nn3ccc(=O)nc3s2)CCN1S(=O)(=O)c1ccc(OC(F)(F)F)cc1` [Example 977, (R)-4-(7-oxo-7H-[1,3,4]thiadiazolo[3,2-a]pyrimidin-2-yl)-1-(4-trifluoromethoxy-benzenesulfonyl)-piperazine-2-carboxylic acid 4-trifluoromethoxy-benzylamide]?
IC50 [1, 5]: < 0.1 µM; IC50 [2, 6]: < 0.1 µM

With `CC(C)Nc1ncc2sc(N3CCN(S(=O)(=O)c4ccc(OC(F)(F)F)cc4)[C@@H](C(=O)NCc4ccc(OC(F)(F)F)cc4)C3)nc2n1` [Example 973, (R)-4-(5-isopropylamino-thiazolo[4,5-d]pyrimidin-2-yl)-1-(4-trifluoromethoxy-benzenesulfonyl)-piperazine-2-carboxylic acid 4-trifluoromethoxy-benzylamide] as the compound, how does the IC50 [1, 5] read?
Its IC50 is under 0.1 µM.

And the IC50 [2, 6]?
The IC50 was under 0.1 µM.

`CCC(F)(F)c1ccc(CNC(=O)[C@H]2CN(C(=O)/C=C\C(=O)O)CCN2S(=O)(=O)c2ccc(OC(F)(F)F)cc2)cc1` [Example 666, (Z)-4-[(R)-3-[4-(1,1-difluoro-propyl)-benzylcarbamoyl]-4-(4-trifluoromethoxy-benzenesulfonyl)-piperazin-1-yl]-4-oxo-but-2-enoic acid] was tested. Which IC50 [1, 5] did it give?
Its IC50 is over 1 µM.

And the IC50 [2, 6]?
The IC50 was over 1 µM.

With `O=C(NCc1ccc(OC(F)(F)F)cc1)[C@H]1CN(c2nn3c(=O)cc(C(F)(F)F)nc3s2)CCN1S(=O)(=O)c1ccc(OC(F)(F)F)cc1` [Example 1038, (R)-4-(5-oxo-7-trifluoromethyl-5H-[1,3,4]thiadiazolo[3,2-a]pyrimidin-2-yl)-1-(4-trifluoromethoxy-benzenesulfonyl)-piperazine-2-carboxylic acid 4-trifluoromethoxy-benzylamide] as the compound, how does the IC50 [1, 5] read?
The IC50 was 0.1 to 1 µM.

What about the IC50 [2, 6] of the same compound?
The IC50 was 0.1 to 1 µM.

With `CCCc1ccc(CNC(=O)[C@H]2CN(c3cnc4c(n3)NC(=O)OC4)CCN2S(=O)(=O)c2ccc(OC(F)(F)F)cc2)cc1` [Example 556, (R)-4-(2-oxo-1,4-dihydro-2H-pyrazino[2,3-d][1,3]oxazin-7-yl)-1-(4-trifluoromethoxy-benzenesulfonyl)-piperazine-2-carboxylic acid 4-propyl-benzylamide] as the compound, how does the IC50 [1, 3] read?
Its IC50 is under 0.1 µM.

And the IC50 [2, 4]?
The IC50 was under 0.1 µM.

With `O=C(NCc1ccc(OC(F)(F)F)cc1)[C@H]1CN(c2nc3nc(CN4CCCC4)ncc3s2)CCN1S(=O)(=O)c1ccc(OC(F)(F)F)cc1` [Example 1056, (R)-4-(5-pyrrolidin-1-ylmethyl-thiazolo[4,5-d]pyrimidin-2-yl)-1-(4-trifluoromethoxy-benzenesulfonyl)-piperazine-2-carboxylic acid 4-trifluoromethoxy-benzylamide] as the compound, how does the IC50 [1, 5] read?
Its IC50 is under 0.1 µM.

What about the IC50 [2, 6] of the same compound?
The IC50 was under 0.1 µM.

`CCC(F)(F)c1ccc(CNC(=O)[C@H]2CN(C(=O)Nc3nnc(C(=O)N4CCC(O)CC4)s3)CCN2S(=O)(=O)c2ccc(OC(F)(F)F)cc2)cc1` [Example 496, (R)-4-(4-trifluoromethoxy-benzenesulfonyl)-piperazine-1,3-dicarboxylic acid 3-[4-(1,1-difluoro-propyl)-benzylamide] 1-{[5-(4-hydroxy-piperidine-1-carbonyl)-[1,3,4]thiadiazol-2-yl]-amide}] was tested. Which IC50 [1, 3] did it give?
The IC50 was over 1 µM.

And the IC50 [2, 4]?
The IC50 was over 1 µM.

How did the IC50 [1, 5] turn out when `Cc1ncc2sc(N3CCN(S(=O)(=O)c4ccc(C(F)(F)F)cc4)[C@@H](C(=O)NCc4ccc(OC(F)(F)F)cc4)C3)nc2n1` [Example 925, (R)-4-(5-methyl-thiazolo[4,5-d]pyrimidin-2-yl)-1-(4-trifluoromethyl-benzenesulfonyl)-piperazine-2-carboxylic acid 4-trifluoromethoxy-benzylamide] was run?
Its IC50 is under 0.1 µM.

What about the IC50 [2, 6] of the same compound?
Its IC50 is under 0.1 µM.
